# Reference: patent publication US4618598A, “Method of regulating hormone function or release” (Duke University, priority 1982, dated 1986)
# Tests used:
# [1] = test system: pituitary cell cultures; details: for effect on conjugate-stimulated LH release: Example 4, 2 mM EGTA (1.25 mM extracellular calcium), five micromolar Pimozide; for effect on LH release stimulated by dimer plus antibody: Example 7, 5 μM Pimozide or 2 mM EGTA, all titers, 1.5×10^-11 M dimer
# Procedure: (§1) Luteinizing hormone release from pituitary cell cultures is dependent upon the binding of the gonadotropin releasing hormone to its specific cell surface receptor. […] In FIG. 2 the antagonist activity of GnRH-Ant was measured in a cell culture bioassay. Two day pituitary cell cultures were incubated with 10^-8 M, 10^-9 M, or no GnRH at the indicated concentration of antagonist. After the 5 h incubation period, the medium was assayed for LH by RIA using rat LH antisera (LHS-4), highly purified rat LH for labeling (LH I-4), and rat LH standard (LH-RP-1) which were made available by a grant from the NIAMDD Hormone Distribution Office (prepared by Dr. A. Parlow, Torrance, CA.). The assay was performed as described below, except that second antibody was used to separate the bound and free [^ 125 -I]-LH.
# Cell cultures were prepared, by collagenase-hyaluronidase dispersion of pituitaries from 25-day-old female weanling rats. The cultures were then incubated for 2 days at 37 C. in culture plates. […] After the culture period, the cells were washed free of debris and sera with medium 199 containing 0.3% bovine serum albumin (Cohn fraction V; 199/BSA) and incubated with the indicated compounds. Medium 199 normally contains 1 mM Ca^2+. Cells were incubated in 1.0 ml medium for 3 h. After the incubation period, the supernatant fraction was removed from the cells (attached to the culture dish) with a Pasteur pipette and assayed for LH by RIA employing rat LH antisera (LHS-5), highly purified rat LH for labeling (LH-I-6), and rat LH standard (LH-RP-1), all of which were made available by the NIAMMD Hormone Distribution Office and were prepared by Dr. A. Parlow (Torrance, CA). The assay was performed, using immobile protein A to separate the bound and free [^125 I]LH. […] LH release was normalized by DNA determination in order to correct for slight differences in cell numbers in different assay wells.
# Rabbit anti-D-Lys^6 -GnRH (antiserum No. 5111 prepared by immunization with D-Lys^6 coupled to bovine serum albumin (BSA) with glutaraldehyde) was added without additional purification in an amount sufficient to bind 8-10% of the dimer. The antibody was added in a final volume of 50 μl (with Medium 199 containing 0.3% BSA and 2 mg NaN3). The reaction ws allowed to proceed 10 h at room temperature and then 2 days at 10° C. Immediately before the cell bioassay, the solution was applied to a 12 ml calibrated G-75 column (10×260 mm) equilibrated in 199/BSA. Twenty drop fractions (about 300 μl) were collected and brought to 1.0 ml with 199/BSA. […] Where monovalent antibody is specified, the reduced pepsin fragment of antibody (No. 5111) was substituted for intact antibody in the conjugation described above. In this case ammonium sulfate fractionated IgG was dissolved in 50 mM acetate buffer, pH 4.5 and digested with pepsin (Worthington Biochemical Corp.) at an enzyme:substrate ratio of 1:100 for 50 min at […]. Digestion was stopped by neutralization with 1M Tris-HCL, pH 8.0 and 0.1N NaOH. Precipitated material was removed by centrifugation and 2-mercaptoethanol added to the supernatant at a final concentration of 0.75 mM. The solution was maintained at room temperature for 1 h, then cooled in ice cold water.
# [2] = biological target: T1, gonadotropin releasing hormone receptor (Rattus norvegicus, UniProt P30969); experiment: Competitive binding against [125-I] Buserelin on pituitary plasma membrane fraction
# T1 construct: gonadotropin releasing hormone sites on a plasma membrane fraction from the rat pituitary; from tissue; host or cells: rat pituitary plasma membrane fraction
# T1 sequence (P30969 1-327): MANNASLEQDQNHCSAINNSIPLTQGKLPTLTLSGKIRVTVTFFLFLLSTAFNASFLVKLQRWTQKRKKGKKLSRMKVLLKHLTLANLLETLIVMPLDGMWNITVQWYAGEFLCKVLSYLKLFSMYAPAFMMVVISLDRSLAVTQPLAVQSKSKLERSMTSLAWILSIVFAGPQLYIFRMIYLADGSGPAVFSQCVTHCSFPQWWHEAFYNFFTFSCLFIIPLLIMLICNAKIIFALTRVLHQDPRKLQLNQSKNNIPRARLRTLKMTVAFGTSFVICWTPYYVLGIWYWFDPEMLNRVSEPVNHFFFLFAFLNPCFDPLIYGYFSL
# From the text: [125-I]-Tyr^5 -D-ser(tert-butyl)^6 -desGly^10 -Pro^9 ethylamid-GnRH ([125-I] Buserelin, Hoechst Pharmaceuticals) binds to the gonadotropin releasing hormone receptor sites on the plasma membrane. The ability to compete with the iodine labelled Buserelin indicates the relative affinity for the receptor. […] The data are expressed in terms of equivalents of releasing hormone analogue showing the radioligand bound in the presence of the indicated analogue concentration (B) compared to that bound in the absence of added analog (Bo).
# The binding assay was conducted in polypropylene microfuge tubes which were precoated overnight with 1% BSA. The assay contained approximately 20,000 cpm of ^125 I-labeled Buserelin and 30 μg of membrane protein, in the presence or absence of 10^-5 M GnRH. In some competition experiments, the amount of added GnRH was altered as indicated. To determine the specificity of binding, des-pGlu^1 -GnRH (Bachem, Torrance, Calif.), D-Ala^6 -GnRH (Peninsula Laboratories, Inc., San Carlos, Calif.), D-Phe^2 -D-Ala^6 -GnRH (Wyeth Laboratories, Philadelphia, Pa.) TRH (Peninsula Laboratories), arg^8 -vasopressin (Calbiochem, San Diego, Calif.), or somatostatin (Beckman Instruments, Fullerton, Calif.) were added at the indicated concentrations. The final assay volume was 500 μl adjusted with 10 mM Tris-0.1% BSA. Following a 2-hr incubation on ice, bound and free hormone were separated by centrifugation. (Eppendorf microfuge, 12,800×g, 5 min) through 100 μl of 10% (w/v) sucrose. The tips of the tubes were cut off and radioactivity was determined by γ-spectroscopy. […] For some kinetic studies, bound hormone and free hormone were separated by the method of rapid filtration. Incubations were performed in triplicate. Specific binding was determined by subtracting nonspecific binding (in the presence of excess unlabeled GnRH) from total binding (no GnRH). Scatchard analysis of the binding data, using linear regression analysis to establish best-line fit, was used to determine the number and binding affinity of GnRH receptors. […]
# [3] = test system: pituitary cell cultures; experiment: Inhibition of GnRH-stimulated LH release from pituitary cell cultures (antagonist function); type: cell-based, rat
# Procedure: as §1, with “FIG. 2 illustrates the ability of the gonadotropin releasing hormone antagonist to inhibit gonadotropin releasing hormone-stimulated LH release from pituitary cell cultures. Luteinizing” for “Luteinizing”, “receptor. The GnRH-antagonist binds to this receptor and blocks stimulation by GnRH.” for “receptor.”
# Cell cultures were prepared, by collagenase-hyaluronidase dispersion of pituitaries from 25-day-old female weanling rats. The cultures were then incubated for 2 days at 37 C. in culture plates. […]
compound,measurement,setting,value
CC(C)C[C@H](NC(=O)[C@@H](CCCCNC(=O)CCC(=O)OCCOC(=O)CCC(=O)NCCCC[C@@H](NC(=O)[C@H](Cc1ccc(O)cc1)NC(=O)[C@H](CO)NC(=O)[C@H](Cc1c[nH]c2ccccc12)NC(=O)[C@H](Cc1c[nH]cn1)NC(=O)[C@@H]1CCC(=O)N1)C(=O)N[C@@H](CC(C)C)C(=O)N[C@@H](CCCNC(=N)N)C(=O)N1CCC[C@H]1C(=O)NCC(N)=O)NC(=O)[C@H](Cc1ccc(O)cc1)NC(=O)[C@H](CO)NC(=O)[C@H](Cc1c[nH]c2ccccc12)NC(=O)[C@H](Cc1c[nH]cn1)NC(=O)[C@@H]1CCC(=O)N1)C(=O)N[C@@H](CCCNC(=N)N)C(=O)N1CCC[C@H]1C(=O)NCC(N)=O [(D-Lys^6 -GnRH)2 -EGS dimer],ED50 of LH release,[1],0.8 nM
CCNC(=O)[C@@H]1CCCN1C(=O)[C@H](CCCNC(=N)N)NC(=O)[C@H](CC(C)C)NC(=O)[C@@H](COC(C)(C)C)NC(=O)[C@H](Cc1ccc(O)cc1)NC(=O)[C@H](CO)NC(=O)[C@H](Cc1c[nH]c2ccccc12)NC(=O)[C@H](Cc1cnc[nH]1)NC(=O)[C@@H]1CCC(=O)N1 [Buserelin],IC50,[2],~0.1 nM
"CC(C)C[C@H](NC(=O)[C@@H](CCCCN)NC(=O)[C@H](Cc1ccc(O)cc1)NC(=O)[C@H](CO)NC(=O)[C@H](Cc1c[nH]c2ccccc12)NC(=O)[C@H](Cc1c[nH]cn1)NC(=O)[C@@H]1CCC(=O)N1)C(=O)N[C@@H](CCCNC(=N)N)C(=O)N1CCC[C@H]1C(=O)NCC(N)=O [D-Lys^6 -GnRH, pyro glutamic acid-histidine-tryptophan-serine-tyrosine-D-lysine-leucine-arginine-proline-glycine-NH2]",stimulated LH release,"[1]; Example 7, 10^-7 M",58±6 ng/100 ng DNA
O=C(O)CN(CCOCCOCCN(CC(=O)O)CC(=O)O)CC(=O)O [EGTA],effect on conjugate-stimulated LH release,[1],blocked
same,effect on LH release stimulated by dimer plus antibody,[1],diminished LH release to near basal
O=c1[nH]c2ccccc2n1C1CCN(CCCC(c2ccc(F)cc2)c2ccc(F)cc2)CC1 [Pimozide],effect on conjugate-stimulated LH release,[1],blocked
same,effect on LH release stimulated by dimer plus antibody,[1],diminished LH release to near basal
D-pyroglumatic acid-D-phenylalanyl-D-tryptophanyl-D-lysyl-GnRH [GnRH-antagonist],binding affinity compared with natural GnRH,[2],higher affinity than natural sequence releasing hormone
same,binding affinity relative to natural sequence gonadotropin releasing hormone,"[2]; printed as less affinity than natural GnRH, in equivalents of monomeric hormone",about 50 fold
same,antagonist action on GnRH-stimulated LH release,[3],blocks the action of both 10^-8 molar and 10^-9 molar GnRH
same,IC50,"[3]; GnRH-stimulated (10^-9 molar), pituitary cultures, read-out: 50% inhibitory concentration (IC50) of GnRH-stimulated gonadotropin release",0.2 nM
"GnRH: natural sequence gonadotropin releasing hormone (QHWSYGLRPG; Gonadoliberin-1; UniProt P01148 24-33, looked up)",LH release in response to GnRH,"[1]; Example 4, 10^-7 moles GnRH, five hour period",13.6±0.9 ng LH/20 μL of medium
same,concentration at which maximum LH release is reached,[1]; FIG. 6,10^-7 molar
